Data reported in patent US20090143279A1 (priority 2007, published 2009).
Where two headings read alike, the source gives them in different places.

How the values were obtained:
[1] = system: mitochondrial membrane potential; type: cell-based, mouse; settings: for ΔΨm (composite Z-score): normalized score vs mock-treated (DMSO) wells
[2] = system: reactive oxygen species; type: cell-based, mouse; settings: for ROS (composite Z-score): normalized score vs mock-treated (DMSO) wells
[3] = system: OXPHOS gene expression; type: cell-based, mouse; settings: for GE-HTS (composite Z-score): normalized score vs mock-treated (DMSO) wells
[4] = system: nuOXPHOS transcripts; type: cell-based, mouse; settings: for nucOX (composite Z-score): normalized score vs mock-treated (DMSO) wells
[5] = system: mtOXPHOS transcripts; type: cell-based, mouse; settings: for mitoOX (composite Z-score): normalized score vs mock-treated (DMSO) wells
[6] = system: cytochrome c; type: cell-based, mouse; settings: for cyt c (composite Z-score): normalized score vs mock-treated (DMSO) wells
Sequence of cytochrome c (P62897 whole entry): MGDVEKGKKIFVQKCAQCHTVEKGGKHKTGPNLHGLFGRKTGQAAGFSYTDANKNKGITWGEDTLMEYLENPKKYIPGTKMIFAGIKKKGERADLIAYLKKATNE

[7] = system: C2C12 myotubes; settings: for Viability (composite Z-score): normalized score vs mock-treated (DMSO) wells
[8] = system: cellular dehydrogenase activity; settings: for MTT (composite Z-score): normalized score vs mock-treated (DMSO) wells
[9] = normalized composite Z-score vs mock-treated (DMSO) wells, Conc 20 μM
[10] = Table 6, C2C12 myotubes, 48 h, composite Z-score
[11] = composite Z-score vs DMSO, Conc 20 μM
[12] = composite Z-score vs mock-treated (DMSO) wells, concentration of each compound in μM
[13] = 20 μM, composite Z-score vs DMSO
[14] = composite Z-score vs mock-treated (DMSO) wells, Conc 20 μM
[15] = Table 7, C2C12 myotubes, 48 h, composite Z-score
[16] = 15.02 μM, composite Z-score vs DMSO

## COc1ccc2c(c1)OCC(Cc1ccc(OC)c(OC)c1)C2O (centres unmarked) [3-deshydroxysappanol trimethyl ether, reference compound]
[1]; [9]
  ΔΨm: 0.033
[2]; [10]
  ROS Zscore: 1.3852
[2]; [9]
  ROS: 1.385
[3]; [10]
  GEHTS_Zscore: 1.970
[3]; [9]
  GE-HTS: 0.465
[4]; [9]
  nucOX: 0.557
[5]; [9]
  mitoOX: 0.224
[6]; [9]
  cyt c: −0.948
[7]; [9]
  Viability: 0.416
[8]; [9]
  MTT: −0.416

## COc1c(O)cc2c(-c3ccccc3)cc(=O)oc2c1OC [kuhlmannin]
[1]; Conc 20 μM
  ΔΨm (composite Z-score): 0.133
[2]; Conc 20 μM
  ROS (composite Z-score): 0.443
[3]; Conc 20 μM
  GE-HTS (composite Z-score): 0.624
[4]; Conc 20 μM
  nucOX (composite Z-score): 0.646
[5]; Conc 20 μM
  mitoOX (composite Z-score): 0.408
[6]; Conc 20 μM
  cyt c (composite Z-score): −0.170
[7]; Conc 20 μM
  Viability (composite Z-score): 0.333
[8]; Conc 20 μM
  MTT (composite Z-score): −0.487

## CCN1C[C@]2(COC)[C@H](O)C[C@H](OC)[C@@]34[C@@H]5C[C@@]6(O)[C@H](OC(=O)c7ccccc7)[C@@H]5[C@@](OC(C)=O)([C@@H]([C@H](OC)[C@H]23)[C@@H]14)[C@@H](O)[C@@H]6OC [aconitine]
[1]; [11]
  ΔΨm: −0.073
[2]; [11]
  ROS: 1.038
[3]; [11]
  GE-HTS: 0.169
[4]; [11]
  nucOX: 0.356
[5]; [11]
  mitoOX: −0.198
[6]; [11]
  cyt c: 0.751
[6]; [12]
  cyt c: 1.609
[7]; [11]
  Viability: 0.132
[8]; [11]
  MTT: −0.584

## CCN1C[C@]2(C)CC[C@H](OC)[C@@]34C1[C@]1(OCO[C@@]15C[C@H](OC)[C@H]1C[C@]3(O)[C@@H]5[C@H]1OC)[C@@H](OC(C)=O)[C@H]24 [deltaline]
[1]; Conc 20 μM
  ΔΨm (composite Z-score): −0.496
[2]; Conc 20 μM
  ROS (composite Z-score): 1.654
[3]; Conc 20 μM
  GE-HTS (composite Z-score): −0.220
[4]; Conc 20 μM
  nucOX (composite Z-score): −0.062
[5]; Conc 20 μM
  mitoOX (composite Z-score): −0.422
[6]; Conc 20 μM
  cyt c (composite Z-score): 0.271
[7]; Conc 20 μM
  Viability (composite Z-score): −0.735
[8]; Conc 20 μM
  MTT (composite Z-score): −1.231

## CN1CCCC(CC2c3ccccc3Sc3ccccc32)C1 (centres unmarked) [metixene]
[1]
  ΔΨm: −0.713
[2]
  ROS: −0.834
[3]
  GE-HTS: −1.190
[4]
  nucOX: −1.058
[5]
  mitoOX: −1.236
[6]
  cyt c: 0.097
[7]
  Viability: 1.221
[8]
  MTT: −0.786

## Cc1cc(=O)[nH]c(=S)[nH]1 [methylthiouracil]
[1]; [13]
  ΔΨm: −0.553
[2]; [13]
  ROS: 0.815
[3]; [13]
  GE-HTS: −0.029
[4]; [13]
  nucOX: 0.146
[5]; [13]
  mitoOX: −0.302
[6]; [13]
  cyt c: 0.846
[7]; [13]
  Viability: −0.235
[8]; [13]
  MTT: −0.633

## CC(=O)OC1CCC2(C)C(CCC3C2CCC2(C)C3CC3OC4(CCC(C)CO4)C(C)C32)C1 (centres unmarked) [neotigogenin acetate]
[1]; [9]
  ΔΨm: −0.822
[2]; [9]
  ROS: −0.437
[3]; [9]
  GE-HTS: −0.890
[4]; [9]
  nucOX: −0.925
[5]; [9]
  mitoOX: −0.693
[6]; [9]
  cyt c: −0.049
[7]; [9]
  Viability: −0.705
[8]; [9]
  MTT: −1.611

## C/C=C(\C)C(=O)O[C@H]1C[C@@H](OC(C)=O)[C@@]2(C(=O)OC)CO[C@H]3[C@@H](O)[C@@](C)([C@]45O[C@@]4(C)[C@H]4C[C@@H]5O[C@@H]5OC=C[C@@]54O)[C@H]4[C@]1(CO[C@]4(O)C(=O)OC)[C@@H]32 [azadirachtin]
[1]; [11]
  ΔΨm: −0.670
[2]; [11]
  ROS: 0.494
[3]; [11]
  GE-HTS: 0.119
[4]; [11]
  nucOX: 0.152
[5]; [11]
  mitoOX: 0.042
[6]; [11]
  cyt c: −0.421
[7]; [11]
  Viability: −0.479
[8]; [11]
  MTT: −1.018

## CC1CCC(C(C)C)C(OC(=O)c2ccccc2)C1 (centres unmarked) [menthyl benzoate]
[1]; Conc 20 μM
  ΔΨm (composite Z-score): 0.016
[2]; Conc 20 μM
  ROS (composite Z-score): 1.375
[3]; Conc 20 μM
  GE-HTS (composite Z-score): −0.115
[4]; Conc 20 μM
  nucOX (composite Z-score): 0.047
[5]; Conc 20 μM
  mitoOX (composite Z-score): −0.336
[6]; Conc 20 μM
  cyt c (composite Z-score): −0.724
[7]; Conc 20 μM
  Viability (composite Z-score): −0.151
[8]; Conc 20 μM
  MTT (composite Z-score): −1.026

## C=C1[C@@H]([C@@]2(C)[C@@H](OC(C)=O)CC(=O)O[C@](C)(COC(C)=O)[C@@H]2C(=O)OC)[C@@H](OC=O)[C@H](OC(=O)[C@H](O)[C@H](C)CC)[C@@]2(C)[C@H](c3ccoc3)CC(=O)[C@]12O [Prieurianin, reference compound]
[1]; [14]
  ΔΨm: 1.108
[2]; [14]
  ROS: −1.358
[3]; [14]
  GE-HTS: 2.020
[4]; [15]
  nucOXPHOS Z: 1.90
[4]; [14]
  nucOX: 1.896
[5]; [15]
  mito-OXPHOS Z: 1.93
[5]; [14]
  mitoOX: 1.931
[6]; [14]
  cyt c: −1.620
[7]; [14]
  Viability: −0.894
[8]; [14]
  MTT: −1.263

## CC1(C)C(=O)C=C[C@]2(C)[C@H]3CC[C@@]4(C)[C@H](c5ccoc5)OC(=O)[C@H]5O[C@]54[C@]3(C)[C@H](O)C[C@@H]12 [deacetylgedunin]
[1]; [14]
  ΔΨm: 0.349
[2]; [14]
  ROS: −0.966
[3]; [14]
  GE-HTS: −0.322
[4]; [14]
  nucOX: −0.244
[5]; [14]
  mitoOX: −0.484
[6]; [14]
  cyt c: −0.489
[7]; [14]
  Viability: −0.032
[8]; [14]
  MTT: −0.958

## COc1ccc(-c2cc(=O)c3c(O)c(OC)c(O[C@@H]4O[C@H](CO[C@@H]5O[C@@H](C)[C@H](O)[C@@H](O)[C@H]5O)[C@@H](O)[C@H](O)[C@H]4O)cc3o2)cc1 [pectolinarin]
[1]; [9]
  ΔΨm: −0.280
[2]; [9]
  ROS: 1.058
[3]; [9]
  GE-HTS: −1.381
[4]; [9]
  nucOX: −1.292
[5]; [9]
  mitoOX: −1.349
[6]; [9]
  cyt c: −0.739
[7]; [9]
  Viability: −0.100
[8]; [9]
  MTT: −0.475

## COc1ccc(-c2c(OC)c3c(OC)c4c(cc3oc2=O)OC(C)(C)C=C4)cc1 [robustic acid methyl ether, reference compound]
[1]; Conc 20 μM
  ΔΨm (composite Z-score): 0.692
[2]; Conc 20 μM
  ROS (composite Z-score): 1.431
[3]; Conc 20 μM
  GE-HTS (composite Z-score): 0.230
[4]; Conc 20 μM
  nucOX (composite Z-score): 0.444
[5]; Conc 20 μM
  mitoOX (composite Z-score): −0.223
[6]; Conc 20 μM
  cyt c (composite Z-score): 0.679
[7]; Conc 20 μM
  Viability (composite Z-score): 0.497
[8]; Conc 20 μM
  MTT (composite Z-score): 0.474

## (−)-asarinin
[1]; [11]
  ΔΨm: −0.439
[2]; [11]
  ROS: −0.229
[3]; [11]
  GE-HTS: −1.167
[4]; [11]
  nucOX: −0.726
[5]; [11]
  mitoOX: −1.858
[6]; [11]
  cyt c: 0.607
[7]; [11]
  Viability: −0.632
[8]; [11]
  MTT: −0.505

## C/C=C(/C(=C/C)c1ccc(O)cc1)c1ccc(O)cc1 [dienestrol]
[1]; [16]
  ΔΨm: −0.205
[1]; [13]
  ΔΨm: 0.129
[2]; [16]
  ROS: −0.210
[2]; [13]
  ROS: −0.260
[3]; [16]
  GE-HTS: 0.033
[3]; [13]
  GE-HTS: −0.280
[4]; [16]
  nucOX: −0.191
[4]; [13]
  nucOX: −0.251
[5]; [16]
  mitoOX: 0.481
[5]; [13]
  mitoOX: −0.222
[6]; [16]
  cyt c: 0.894
[6]; [13]
  cyt c: −0.653
[7]; [16]
  Viability: 0.829
[7]; [13]
  Viability: 0.290
[8]; [16]
  MTT: −0.652
[8]; [13]
  MTT: −0.326

## C=C1CC[C@H](O)C/C1=C/C=C1\CCC[C@]2(C)[C@@H]([C@H](C)/C=C/[C@H](C)C(C)C)CC[C@@H]12 [ergocalciferol]
[1]; [13]
  ΔΨm: −0.449
[2]; [13]
  ROS: 1.541
[3]; [13]
  GE-HTS: 0.661
[4]; [13]
  nucOX: 0.723
[5]; [13]
  mitoOX: 0.357
[6]; [13]
  cyt c: −0.118
[7]; [13]
  Viability: 0.372
[8]; [13]
  MTT: −1.658

## C[C@@H]1NCCc2cc(O)c(O)cc21 [salsolinol]
[1]; [12]
  ΔΨm: −0.160
[2]; [12]
  ROS: −0.248
[3]; [12]
  GE-HTS: −0.284
[4]; [12]
  nucOX: −0.197
[5]; [12]
  mitoOX: −0.397
[6]; [12]
  cyt c: −0.994
[7]; [12]
  Viability: −1.127
[8]; [12]
  MTT: −1.113
